# Counter-ions that a name gives are not always drawn.
# Legend:
# [1] = tested on: chondrocytic proteoglycan metabolism; assay: Modulation of the chondrocytic proteoglycan metabolism (PG stimulation); format: cell-based, bulls; settings: stimulation factor = proteoglycan content with active compound / untreated control, 10 μm test substance, 8 days, chondrocytes in agarose, Alcian Blue extinction at 610 nm, factor >1 = stimulation; for fold induction at 10 µM: Chondrocyte, 192 h
# Description: (§1) Cartilage cells can maintain their characteristic cartilage matrix metabolism ex vivo in suitable cell or tissue culture, i.e. the controlled synthesis and degradation of the matrix macromolecules, over a period of several weeks to months. These processes can be chemically influenced. […] In both assays, the stimulating action of the test substance is expressed by a stimulation factor which is calculated from the quotient of the specific proteoglycan content under the active compound condition divided by the proteoglycan content under the control condition. In Experiment A, the control condition is the untreated control group and in experimental procedure B this is the interleukin-1 (IL-1)-treated control group. A factor=1 can thus identify no action, a factor of >1 points to a stimulation and a factor of <1 to an inhibitory action.
# A) Modulation of the chondrocytic proteoglycan metabolism (PG stimulation)
# Cartilage samples are taken under sterile conditions from fetlock joints of freshly slaughtered bulls, incubated with 1% strength pronase (Boehringer) solution in Ham's F12 medium (Serva) at 37° C. for 1 hour, and the enzyme solution is replaced by a 0.025% strength collagenase type A (Worthington) solution in medium and incubated overnight. After filtering through a 50 μm nylon filter, centrifugation, resuspension and vitality testing, a cell suspension of 4×10^6 cells/ml of medium, enriched with 20% fetal calf serum, is prepared and mixed at approximately 38° C. with 2% strength low-melting agarose (Seplaque) in the ratio 1:1 and 0.1 ml of this is pipetted into each well of a 24 well microtiter plate. After gelling, the samples are covered with a layer of 0.5 ml/well of medium, which is enriched with 5% serum, 25 μm/ml of ascorbic acid, and in groups of up to 6-8 wells with 10 μm of the test substance. The medium in a constant composition is renewed every second day for a treatment period of 8 days. At the end of the treatment, washing is carried out with medium, 1 ml of a buffered (pH 5.6) 1% strength Alcian Blue (Sigma) solution, enriched with 25% strength glutaraldehyde in the ratio 7:1, per well is added and the mixture is incubated for 48 hours. After washing and differentiating with 3% strength acetic acid, dehydration is carried out up to 70% strength ethanol content by means of the rising alcohol series, and then the bound dye is extracted at 4° C. for 24 hours using 8 M guanidine hydrochloride. The stoichiometric binding of the Alcian Blue to the chondroitin sulfate side chains of the proteoglycans allows a quantification of the enriched matrix via the determination of the extinction of the dye solution at 610 nm.
# [2] = tested on: IL-1-induced chondrocytic chondrolysis; assay: Modulation of the IL-1-induced chondrocytic chondrolysis (chondrolysis compensation); format: cell-based, bulls; settings: stimulation factor = proteoglycan content with active compound / IL-1-treated control; interleukin-1 for 8 days, 35S-sulfate incorporation 24 hours; factor >1 = stimulation
# Description: as §1
# B) Modulation of the IL-1-induced Chondrocytic Chondrolysis (Chondrolysis Compensation)
# Cell preparation was carried out as described under A), if cartilage tissue explants are used these are added directly to the enriched culture medium described above after stamping out cartilage disks of 4 mm diameter and a depth which includes the entire cartilage layer. After adaptation for 5 days, interleukin-1 is added to the medium, 8 units/well for the cell culture, 20 units/well for the tissue culture, and, over the treatment period of 8 days, likewise added again every second day on changing the medium. At the end of the experiments, 1 μCi of Na2^35SO4/well is added and the mixture is incubated for 24 hours. After removing the supernatant, the remaining gels or explants are broken down in the microtiter plates by repeated deepfreezing and thawing and extracted with 8 M guanidine hydrochloride. After centrifugation, the supernatant is separated on a PD10 Sephadex column into free and incorporated sulfate and the radioactivity of the samples, which is a measure of the amount of proteoglycan newly formed, is determined in a β counter.
melting point,SMILES,fold induction at 10 µM [1],Chondrolysis compensation [2],PG stimulation [1]
168 to 172 °C,N#C/C(C(=O)Nc1ccc(C(F)(F)F)cc1)=C(/O)CC(O)/C=C/c1ccccc1 (centres unmarked) [Example 25],,,
170 to 171 °C,Cc1ccc(C(O)C/C(O)=C(\C#N)C(=O)Nc2ccc(C(F)(F)F)cc2)cc1 (centres unmarked) [Example 11],,,
165 °C,Cc1cc(NC(=O)/C(C#N)=C(\O)CC(O)c2ccccc2)ccc1Cl (centres unmarked) [Example 13],,1.1,
114 to 116 °C,CC(C)=CCC/C(C)=C/C(O)C/C(O)=C(\C#N)C(=O)Nc1ccc(C(F)(F)F)cc1 (centres unmarked) [Example 30],,1.3,
178 °C,N#C/C(C(=O)Nc1ccc(Cl)cc1)=C(/O)CC(O)c1ccccc1 (centres unmarked) [Example 12],,,
168 °C,N#C/C(C(=O)Nc1ccc(C(F)(F)F)cc1)=C(/O)CC(O)C#Cc1ccccc1 (centres unmarked) [Example 26],,1.9,
133 to 135 °C,C=CC(O)C/C(O)=C(\C#N)C(=O)Nc1ccc(C(F)(F)F)cc1 (centres unmarked) [Example 39],,1.6,1.7
154 °C,COc1cc(C(O)C/C(O)=C(\C#N)C(=O)Nc2ccc(C(F)(F)F)cc2)cc(OC)c1OC (centres unmarked) [Example 18],1.1,1.2,
141 °C,C=CC(O)C/C(O)=C(\C#N)C(=O)Nc1ccc(C(F)(F)F)cc1 (centres unmarked) [Example 27],1.7,1.6,
203 °C,N#C/C(C(=O)Nc1ccc(C(F)(F)F)cc1)=C(/O)CC(O)c1cccnc1 (centres unmarked) [Example 21],1.2,1.3,
180 °C,Cc1ccc(C(O)C/C(O)=C(\C#N)C(=O)Nc2ccc(C(F)(F)F)cc2)cc1 (centres unmarked) [Example 14],,,
180 °C,N#C/C(C(=O)Nc1ccc(C(F)(F)F)cc1)=C(/O)CC(O)c1ccc(C#N)cc1 (centres unmarked) [Example 16],,1.1,
203 °C,N#C/C(C(=O)Nc1ccc(C(F)(F)F)cc1)=C(/O)CC(O)c1ccncc1 (centres unmarked) [Example 20],,,
135 to 138 °C,"CC(O)C/C(O)=C(\C#N)C(=O)Nc1ccc(C(F)(F)F)cc1 (centres unmarked) (as salt: salt) [Example 37, N-(4-Trifluoromethylphenyl)-2-cyano-3,5-dihydroxyhex-2-carboxamide Lysinium Salt]",,,
146 °C,N#C/C(C(=O)Nc1ccc(C(F)(F)F)cc1)=C(/O)CC(O)c1ccoc1 (centres unmarked) [Example 23],,1.9,
178 °C,N#C/C(C(=O)Nc1ccc(C(F)(F)F)cc1)=C(/O)CC(O)c1ccc(C(F)(F)F)cc1 (centres unmarked) [Example 17],,,
145 to 148 °C,CC(C)(O)C/C(O)=C(\C#N)C(=O)Nc1ccc(C(F)(F)F)cc1 [Example 38],,1.8,

# The remaining lines, values behind:
SMILES,melting point,fold induction at 10 µM [1],Chondrolysis compensation [2],PG stimulation [1]
N#C/C(C(=O)Nc1ccc(C(F)(F)F)cc1)=C(/O)CC(O)c1ccco1 (centres unmarked) [Example 22],,1.1,1.9,
CC(O)C/C(O)=C(\C#N)C(=O)NCc1ccccc1 (centres unmarked) [Example 6],,,1.9,
N#C/C(C(=O)Nc1ccc(C(F)(F)F)cc1)=C(/O)CC(O)c1cccs1 (centres unmarked) [Example 24],,,1.9,
"CC(C)(O)C/C(O)=C(\C#N)C(=O)Nc1ccccc1 [Example 1, N-(Phenyl)-2-cyano-3,5-dihydroxy-5-methylhex-2-enecarboxamide]",103 °C,,1.4,
CC(C)(O)C/C(O)=C(\C#N)C(=O)NCCc1ccccc1 [Example 4],81 °C,,1.5,
"C[C@H](O)C/C(O)=C(\C#N)C(=O)Nc1ccc(C(F)(F)F)cc1 (as salt: salt) [Example 10b, N-(4-Trifluormethylphenyl)-2-cyano-3,5-dihydroxyhex-2-enecarboxamide Lysinium Salt, S-isomer]",157 °C,,,
N#C/C(C(=O)Nc1ccc(C(F)(F)F)cc1)=C(/O)CC(O)c1ccc2c(c1)OCO2 (centres unmarked) [Example 19],,1.1,1.3,
CCCCC(C)(O)C/C(O)=C(\C#N)C(=O)Nc1ccc(C(F)(F)F)cc1 (centres unmarked) [Example 31],,,1.6,
CC(O)C/C(O)=C(\C#N)C(=O)Nc1ccc(C(F)(F)F)cc1 (centres unmarked) [Example 9],,1.5,1.6,
CC(C)(O)C/C(O)=C(\C#N)C(=O)Nc1ccc(C(F)(F)F)cc1 [Example 2],155 °C,1.8,1.9,
"CC(O)C/C(O)=C(\C#N)C(=O)Nc1ccc(C(F)(F)F)cc1 (centres unmarked) [Example 37, N-(4-Trifluoromethylphenyl)-2-cyano-3,5-dihydroxyhex-2-carboxamide Lysinium Salt]",,,1.9,1.1
"C[C@H](O)C/C(O)=C(\C#N)C(=O)Nc1ccc(C(F)(F)F)cc1 [Example 10b, N-(4-Trifluormethylphenyl)-2-cyano-3,5-dihydroxyhex-2-enecarboxamide Lysinium Salt, S-isomer]",,,1.7,
CC(O)C/C(O)=C(\C#N)C(=O)Nc1ccccc1 (centres unmarked) [Example 5],101 °C,,1.8,
"C[C@@H](O)C/C(O)=C(\C#N)C(=O)Nc1ccc(C(F)(F)F)cc1 (as salt: salt) [Example 10a, N-(4-Trifluoromethylphenyl)-2-cyano-3,5-dihydroxyhex-2-enecarboxamide Lysinium Salt, R Isomer]",156 °C,,,
CC(O)(C/C(O)=C(\C#N)C(=O)Nc1ccc(C(F)(F)F)cc1)C1CC1 (centres unmarked) [Example 32],,1.1,1.8,
N#C/C(C(=O)Nc1ccc(C(F)(F)F)cc1)=C(/O)CC(O)C1CC1 (centres unmarked) [Example 33],,,1.9,
CC(O)C/C(O)=C(\C#N)C(=O)Nc1ccc(Cl)cc1 (centres unmarked) [Example 8],152 °C,,2.1,
CC(O)C/C(O)=C(\C#N)C(=O)NCCc1ccccc1 (centres unmarked) [Example 7],91 °C,,1.3,
"C[C@@H](O)C/C(O)=C(\C#N)C(=O)Nc1ccc(C(F)(F)F)cc1 [Example 10a, N-(4-Trifluoromethylphenyl)-2-cyano-3,5-dihydroxyhex-2-enecarboxamide Lysinium Salt, R Isomer]",,,1.1,
CC(C)(O)C/C(O)=C(\C#N)C(=O)NCc1ccccc1 [Example 3],,,1.5,
C=C(C)C(O)C/C(O)=C(\C#N)C(=O)Nc1ccc(C(F)(F)F)cc1 (centres unmarked) [Example 28],,1.1,,
CC(C)=CC(O)C/C(O)=C(\C#N)C(=O)Nc1ccc(C(F)(F)F)cc1 (centres unmarked) [Example 29],,1.1,1.7,
N#C/C(C(=O)Nc1ccc(C(F)(F)F)cc1)=C(/O)CC(=O)O [Example 36],,,1.8,
N#C/C(C(=O)Nc1ccc(C(F)(F)F)cc1)=C(/O)CC(O)c1ccc(OCc2ccccc2)cc1 (centres unmarked) [Example 15],,,1.2,

# Source: US6387934B1, “2-Cyano-3,5-dihydroxyhex-2-enecarboxamide derivatives” (Aventis Pharma Deutschland GmbH, priority 1996, dated 2002)
